Measurements published in patent publication US11807606B2, “Sulfonamide derivatives for protein degradation” (DANA-FARBER CANCER INSTITUTE, INC., priority 2018, dated 2023).
pEC50: −log10 of the molar value.

Molecular target: DCAF15 and RRM2 domain in RBM39 (Homo sapiens (Human), UniProt Q14498+Q66K64)
Test: TR-FRET biochemical assay, DCAF15 activity (recruitment of RBM39 RRM2 domain to DCAF15)
Format: binding
Settings: TR-FRET 520/490 nm ratio; biotinylated DCAF15 200 nM, Bodipy-FL RBM39 RRM2 200 nM, Tb-streptavidin 2 nM
Experimental: Increasing concentrations of compounds were added to pre-mixed biotinylated DCAF15 at 200 nM, Bodipy-FL-labelled RRM2 domain in RBM39 at 200 nM, and terbium (Tb)-coupled streptavidin at 2 nM (Invitrogen) in 384-well microplates in a buffer containing 50 mM Tris pH 7.5, 100 mM NaCl, 0.1% pluronic acid and 2% DMSO. Before TR-FRET measurements were conducted, the reactions were incubated for 15 min at room temperature. After excitation of terbium (Tb) fluorescence at 337 nm, emission at 490 nm (Tb) and 520 nm (Bodipy-FL) were recorded with a 70 μs delay to reduce background fluorescence and the reaction was followed over 1 h by recording 60 technical replicates of each data point using a PHERAstar FS microplate reader (BMG Labtech). The TR-FRET signal of each data point was extracted by calculating the 520/490 nm ratio. Data were analyzed with GraphPad Prism 7.

Sequence of DCAF15 and RRM2 domain in RBM39 (Q66K64 whole entry, the tested form may be a part): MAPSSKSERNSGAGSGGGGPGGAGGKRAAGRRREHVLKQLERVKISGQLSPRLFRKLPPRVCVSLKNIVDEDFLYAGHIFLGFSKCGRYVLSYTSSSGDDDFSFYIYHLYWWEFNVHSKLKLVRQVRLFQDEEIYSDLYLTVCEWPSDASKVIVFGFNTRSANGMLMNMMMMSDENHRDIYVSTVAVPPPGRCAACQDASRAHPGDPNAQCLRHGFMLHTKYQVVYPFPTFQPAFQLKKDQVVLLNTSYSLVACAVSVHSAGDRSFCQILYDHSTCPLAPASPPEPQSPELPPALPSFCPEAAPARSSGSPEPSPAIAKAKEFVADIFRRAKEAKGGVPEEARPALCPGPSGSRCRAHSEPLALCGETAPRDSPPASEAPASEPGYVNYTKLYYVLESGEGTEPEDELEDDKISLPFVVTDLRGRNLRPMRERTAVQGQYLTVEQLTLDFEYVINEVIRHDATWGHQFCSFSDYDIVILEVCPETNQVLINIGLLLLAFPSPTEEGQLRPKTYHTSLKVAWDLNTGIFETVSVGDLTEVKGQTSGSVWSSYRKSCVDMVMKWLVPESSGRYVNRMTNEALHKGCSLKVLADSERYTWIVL
Sequence of DCAF15 and RRM2 domain in RBM39 (Q14498 250-328): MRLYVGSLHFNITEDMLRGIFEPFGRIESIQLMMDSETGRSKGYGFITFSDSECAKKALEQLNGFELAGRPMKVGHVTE
Sequence of DCAF15 and RRM2 domain in RBM39 (Q16531 whole entry partner, the tested form may be a part): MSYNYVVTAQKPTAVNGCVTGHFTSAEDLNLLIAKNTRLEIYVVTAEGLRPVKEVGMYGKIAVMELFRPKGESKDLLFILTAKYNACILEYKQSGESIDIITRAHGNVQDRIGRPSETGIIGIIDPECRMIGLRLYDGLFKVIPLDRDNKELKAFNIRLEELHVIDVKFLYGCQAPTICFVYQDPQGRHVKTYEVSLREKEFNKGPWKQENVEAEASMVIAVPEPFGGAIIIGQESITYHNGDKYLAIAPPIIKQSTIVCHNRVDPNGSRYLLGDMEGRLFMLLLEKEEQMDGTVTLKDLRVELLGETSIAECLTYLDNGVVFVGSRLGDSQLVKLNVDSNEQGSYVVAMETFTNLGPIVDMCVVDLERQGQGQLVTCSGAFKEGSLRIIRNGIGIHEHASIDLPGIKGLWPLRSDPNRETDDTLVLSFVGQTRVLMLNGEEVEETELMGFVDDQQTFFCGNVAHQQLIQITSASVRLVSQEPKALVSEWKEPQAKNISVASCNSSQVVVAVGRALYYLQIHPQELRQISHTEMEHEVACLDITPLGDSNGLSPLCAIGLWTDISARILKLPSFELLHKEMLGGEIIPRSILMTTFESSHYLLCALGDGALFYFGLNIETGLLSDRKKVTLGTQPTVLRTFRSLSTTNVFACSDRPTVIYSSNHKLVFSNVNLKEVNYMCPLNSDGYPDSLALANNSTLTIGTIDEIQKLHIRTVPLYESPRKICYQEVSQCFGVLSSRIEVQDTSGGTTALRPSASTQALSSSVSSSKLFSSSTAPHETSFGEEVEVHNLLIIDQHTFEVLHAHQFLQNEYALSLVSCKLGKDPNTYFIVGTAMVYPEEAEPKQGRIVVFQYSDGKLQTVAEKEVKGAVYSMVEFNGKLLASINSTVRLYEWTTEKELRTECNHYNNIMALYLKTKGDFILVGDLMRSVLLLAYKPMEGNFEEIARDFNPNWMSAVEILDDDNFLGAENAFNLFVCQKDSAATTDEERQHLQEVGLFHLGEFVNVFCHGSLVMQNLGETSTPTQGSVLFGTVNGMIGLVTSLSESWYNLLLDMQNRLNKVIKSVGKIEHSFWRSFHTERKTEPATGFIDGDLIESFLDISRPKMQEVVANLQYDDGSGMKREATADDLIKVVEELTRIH

## Cc1ccc(NS(=O)(=O)c2cccc([N+](=O)[O-])c2)c2[nH]cc(C#N)c12
  pEC50: 5.00 to 6.00

## N#Cc1cccc(S(=O)(=O)Nc2ncnc3[nH]cc(Cl)c23)c1
  pEC50: < 5.00

## O=S(=O)(Nc1ncnc2[nH]ccc12)c1ccccc1
  pEC50: < 5.00

## N#Cc1cccc(S(=O)(=O)Nc2ccc(-c3ccccc3)c3c(C#N)c[nH]c23)c1
  pEC50: < 5.00

## CCOC(=O)c1cc2c(C)ccc(NS(=O)(=O)c3cccc(C#N)c3)c2[nH]1
  pEC50: < 5.00

## Cc1ccc(NS(=O)(=O)c2ccccc2[N+](=O)[O-])c2[nH]cc(C#N)c12
  pEC50: < 5.00

## N#Cc1cccc(S(=O)(=O)Nc2ccc(-c3ccccc3)c3cc[nH]c23)c1
  pEC50: < 5.00

## Cc1ccc(NS(=O)(=O)c2ccc(C#N)cc2)c2[nH]cc(C#N)c12
  pEC50: 5.00 to 6.00

## Cc1ccc(NS(=O)(=O)c2ccccc2C(F)(F)F)c2[nH]cc(C#N)c12
  pEC50: < 5.00

## N#Cc1cccc(S(=O)(=O)Nc2cc(Cl)cc3cc[nH]c23)c1
  pEC50: < 5.00

## CNC(=O)c1cccc(S(=O)(=O)Nc2ccc(C)c3c(C#N)c[nH]c23)c1
  pEC50: 5.00 to 6.00

## N#Cc1cccc(S(=O)(=O)Nc2ccc3[nH]cc(C#N)c3c2)c1
  pEC50: < 5.00

## N#Cc1cccc(S(=O)(=O)Nc2cccc(C(N)=O)c2N)c1
  pEC50: < 5.00

## Cc1ccc(NS(=O)(=O)c2ccc(F)cc2F)c2[nH]cc(C#N)c12
  pEC50: 5.00 to 6.00

## N#Cc1cccc(S(=O)(=O)Nc2cc(Cl)cc3c(Br)c[nH]c23)c1
  pEC50: < 5.00

## Cc1ccc(NS(=O)(=O)c2cccc(C#N)c2)c2[nH]cc(Br)c12
  pEC50: 5.00 to 6.00

## N#Cc1cccc(S(=O)(=O)Nc2ncnc3[nH]ccc23)c1
  pEC50: < 5.00

## N#Cc1cccc(S(=O)(=O)Nc2cccc3c(C#N)c[nH]c23)c1
  pEC50: < 5.00

## Cc1ccc(NS(=O)(=O)c2cccc(C#N)c2)c2[nH]ccc12
  pEC50: < 5.00

## Cc1ccc(NS(=O)(=O)c2ccccc2Br)c2[nH]cc(C#N)c12
  pEC50: < 5.00

## N#Cc1cccc(S(=O)(=O)Nc2cc(-c3ccccc3)cc3c(C#N)c[nH]c23)c1
  pEC50: < 5.00

## N#Cc1cccc(S(=O)(=O)Nc2cc(F)cc3c2NC(=O)C3)c1
  pEC50: < 5.00

## N#Cc1cccc(S(=O)(=O)Nc2cccn3ncnc23)c1
  pEC50: < 5.00

## CNC(=O)c1c[nH]c2c(NS(=O)(=O)c3cccc(C#N)c3)ccc(C)c12
  pEC50: < 5.00

## Cc1ccc(NS(=O)(=O)c2cccc(N)c2)c2[nH]cc(C#N)c12
  pEC50: 5.00 to 6.00

## CCOC(=O)c1cc2cc(NS(=O)(=O)c3cccc(C#N)c3)ccc2[nH]1
  pEC50: < 5.00

## Cc1ccc(NS(C)(=O)=O)c2[nH]cc(C#N)c12
  pEC50: < 5.00

## N#Cc1cccc(S(=O)(=O)Nc2ccc3c(C#N)c[nH]c3c2)c1
  pEC50: < 5.00

## COC(=O)c1cccc(S(=O)(=O)Nc2ccc(C)c3c(C#N)c[nH]c23)c1
  pEC50: 5.00 to 6.00

## N#Cc1cccc(S(=O)(=O)Nc2cccc3c(Cl)n[nH]c23)c1
  pEC50: < 5.00

## Cc1ccc(NC(=O)c2cccc(C#N)c2)c2[nH]cc(C#N)c12
  pEC50: < 5.00

## Cc1ccc(NS(=O)(=O)c2ccc([N+](=O)[O-])cc2)c2[nH]cc(C#N)c12
  pEC50: 5.00 to 6.00

## Cc1ccccc1S(=O)(=O)Nc1ccc(C)c2c(C#N)c[nH]c12
  pEC50: < 5.00

## Cc1ccc(NS(=O)(=O)c2cccc(C(F)(F)F)c2)c2[nH]cc(C#N)c12
  pEC50: 5.00 to 6.00

## Cc1cccc(S(=O)(=O)Nc2ccc(C)c3c(C#N)c[nH]c23)c1
  pEC50: 5.00 to 6.00

## N#Cc1cccc(S(=O)(=O)Nc2cccc3c2CNC3=O)c1
  pEC50: < 5.00

## Cc1ccc(NS(=O)(=O)c2ccccc2OC(F)(F)F)c2[nH]cc(C#N)c12
  pEC50: < 5.00

## COC(=O)c1ccc(S(=O)(=O)Nc2ccc(C)c3c(C#N)c[nH]c23)cc1
  pEC50: 5.00 to 6.00

## Cc1ccc(NS(=O)(=O)c2cccc(C#N)c2)c2[nH]cc(Cl)c12
  pEC50: 5.00 to 6.00

## Cc1ccc(NS(=O)(=O)c2cccc(C#N)c2)c2[nH]cc(C=O)c12
  pEC50: 5.00 to 6.00

## COCCNc1ccc(S(=O)(=O)Nc2ccc(C)c3c(C#N)c[nH]c23)cc1C#N
  pEC50: 5.00 to 6.00

## CC(=O)Nc1ccc(C)c2c(C#N)c[nH]c12
  pEC50: < 5.00

## N#Cc1cccc(S(=O)(=O)Nc2cc(-c3ccccc3)cc3cc[nH]c23)c1
  pEC50: < 5.00

## Cc1ccc(NS(=O)(=O)c2ccccc2)c2[nH]cc(C#N)c12
  pEC50: 5.00 to 6.00
